Source: patent US7973217B2, “Stem-regulated, plant defense promoter and uses thereof in tissue-specific expression in monocots” (The Texas A&M University System, priority 2003, dated 2011)

Columns and labels:
Type in all cases: in vivo
OMT = experiment: cDNA microarray of OMT expression in sugarcane plants sprayed with defense-inducing agents; details: treated (Cy5) v. untreated control (Cy3), normalized
Procedure: The 251 cDNA clones used for microarray analysis in Example 1 were further used to assess the effects of defense-inducing agents on the expression of the stem-specific genes.
Total RNA was extracted from wild type sugarcane plants (3 months-old) that were sprayed with the defense-inducing agents jasmonic acid (JA) (25µM in 0.05.percent.Tween 20), methyl-jasmonate (MeJA) (200µM in 0.1.percent.ethanol and 0.05.percent.Tween 20) or salicylic acid (SA) (5 mM in 0.05.percent.Tween 20) for two time periods, 24 and 48 hours. The microarray including 251 cDNAs was probed with fluorescently labeled cDNAs synthesized from 1µg of total amplified RNA. One cDNA probe (e.g. RNA from plant treated with a defense-inducing agent) is labeled with one dye (Cy5), and the second (e.g. RNA from untreated control plant) with another dye (Cy3)
The normalized ratio of Cy5 v.

GUS [1] = experiment: Histochemical transient GUS expression in particle bombarded sorghum stem tissue; details: versus Ubiquitin 1 promoter
Source text: (§1) FIG. 14 is a photomicrograph of particle bombarded maize and sorghum stem tissues showing histochemical localization of transient GUS expression driven by the stem-regulated OMT promoter or the constitutive maize ubiquitinl promoter.

GUS [2] = experiment: Histochemical transient GUS expression in particle bombarded maize stem tissue; details: versus Ubiquitin 1 promoter
Source text: as §1

Compound | Cy5/Cy3 Ratios (Upregulation) for OMT (OMT; 24 hours after spraying) | Cy5/Cy3 Ratios (Upregulation) for OMT (OMT; 48 hours after spraying) | Transient expression of GUS in stem tissue (GUS [1]) | Transient expression of GUS in stem tissue (GUS [2])
CC/C=C\C[C@H]1C(=O)CC[C@@H]1CC(=O)O [JA, jasmonic acid] | 0.99 | 2.00 | – | –
CC/C=C\CC1C(=O)CCC1CC(=O)OC (stereo not shown) [MeJA, methyl-jasmonate] | 0.70 | 0.97 | – | –
O=C(O)c1ccccc1O [SA, salicylic acid] | – | 2.00 | – | –
OMT promoter: sugarcane o-methyl transferase gene promoter, SEQ ID NO:1, directing stem-regulated, defense-inducible expression | – | – | comparable to that obtained with the Ubiquitin 1 promoter | comparable to that obtained with the Ubiquitin 1 promoter
